Common to all, as to test: NCI-60 cell line screen, 48 h
The subject of assay [1] is TK-10.
For assay [2], the system named is MDA-MB-231.
Assay [3] concerns T47D.
For assay [4], the system named is HCT-116.
Assay [5] deals with CAKI-1.
For assay [6], the system named is SF-295.
The test system of assay [7] is SF-539.
For assay [8], the system named is SNB-75.
The subject of assay [9] is A498.
For assay [10], the system named is LOX IMVI.
Assay [11] deals with EKVX.
For assay [12], the system named is DU-145.
In assay [13] the test system is MOLT-4.
Assay [14] has as its system NCI-H226.
Assay [15] concerns SK-MEL-2.
Assay [16] has as its system COLO 205.
Assay [17] relates to PC-3.
Assay [18] relates to NCI-H460.

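Five concentrations, 48 hours, 96-well plates. At the GI50, growth is halved.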 Calls of active or inactive are those of the source. Rule as the data show it: active = GI50 up to about 1.1 µM and inactive = higher. Starred links: 1 amine or outer side, 2 acyl side, 3 side chain; linkers in the order of their positions; H or OH if unused. Non-standard residues stand in square brackets, D forms with d. Residues, ends and D or L forms follow the SMILES beside them. X41 = CSCCCC(N[*:1])C(=O)[*:2]

Regarding `C=C(C)[C@H]1C2=CC(C(=O)OC)=C(C[C@H](C(=C)C)[C@@H](O)[C@@H](O)C3=C[C@H]1OC3=O)O2`, the GI50 in assay [1], in assay [2], in assay [3], in assay [4], in assay [5] and in assay [6] was > 100 µM (inactive) in each case. Moreover, the GI50 in [7] is > 100 µM (inactive); in assay [8], 37.7 µM (inactive); in assay [9], > 100 µM (inactive); in assay [10], > 100 µM (inactive); in assay [11] it was > 100 µM (inactive); in [12], > 100 µM (inactive). Besides, the GI50 in assay [13] was 97.5 µM (inactive); in assay [14], > 100 µM (inactive); in assay [15], > 100 µM (inactive); in assay [16], > 100 µM (inactive).
For the compound `COc1cc(/C=C/C=C2\CCC/C(=C\C=C\c3ccc(O)c(OC)c3)C2=O)ccc1O`, the GI50 is 8.34 µM (inactive) in [1]; 39.1 µM (inactive) in assay [2]; 8.32 µM (inactive) in [3]; 10.5 µM (inactive) in [4]; 7.23 µM (inactive) in assay [5]; 6.58 µM (inactive) in assay [17]. For the same compound, the GI50 in [6] is 4.74 µM (inactive); in assay [7], 17.5 µM (inactive); in assay [8] it was 26.7 µM (inactive); in [10] it was 7.91 µM (inactive); in assay [11] it was 7.36 µM (inactive); in assay [18], 13.8 µM (inactive). For the same compound, the GI50 in assay [12] was 14.7 µM (inactive); in assay [13] it was 1.01 µM (active); in assay [15], 21.2 µM (inactive); in assay [16], 18.6 µM (inactive).
`CN1CCN(Cc2ccccc2)CC1CC#N` (stereo not drawn): the GI50 in assay [1], in [2], in assay [3], in assay [4], in [5] and in assay [6] was > 100 µM (inactive) throughout. Also, the GI50 in assay [7], in assay [8], in [9], in assay [10], in [11] and in [18] was > 100 µM (inactive) throughout. Further, the GI50 in [12], in assay [13], in [14] and in assay [16] was > 100 µM (inactive) in each case.
Regarding `COc1ccc(C(=O)C(CC2C(=O)CC(C)(C)C(C(=O)C(=O)Nc3c(C)cccc3C)C2=O)c2ccc(OC)cc2)cc1` (stereo not drawn), the GI50 in [1], in assay [2], in [4], in assay [5], in [17] and in [6] was > 100 µM (inactive) throughout. The GI50 in assay [7], in assay [8], in assay [10], in assay [11], in assay [18] and in [12] was > 100 µM (inactive) each time. For the same compound, the GI50 in [13], in assay [14], in assay [15] and in assay [16] was > 100 µM (inactive) each time.
`O=C1c2cn[nH]c2N=C(Nc2ccccc2)C1/N=C/c1ccc([N+](=O)[O-])cc1` (stereo not drawn): the GI50 in assay [1], in assay [4], in assay [17], in assay [6], in [7] and in assay [8] was > 10 µM (inactive) in each case. The GI50 in assay [10], in assay [11], in [18], in assay [12], in assay [13] and in assay [14] was > 10 µM (inactive) in each case.
For the compound `O=c1c2ccccc2nc(-c2cccc([N+](=O)[O-])c2)n1O`, the GI50 in assay [1] is 94.2 µM (inactive); in [2], 17.5 µM (inactive); in [3], 58.5 µM (inactive); in assay [4], 41.5 µM (inactive); in assay [5], 40.7 µM (inactive); in [6], 40.1 µM (inactive). For the same compound, the GI50 is 47.8 µM (inactive) in assay [7]; 45.8 µM (inactive) in [8]; > 40.7 µM (inactive) in assay [9]; 27.2 µM (inactive) in [10]; 36.8 µM (inactive) in assay [11]; 29.2 µM (inactive) in [18]. Also, the GI50 in assay [12] is > 100 µM (inactive); in assay [14], 23.7 µM (inactive); in assay [15], 22.6 µM (inactive); in assay [16], 31.3 µM (inactive).
For `CC(C)N1[C@@H]2CCCC[C@H]2N(C(C)C)[PH]1=O`, the GI50 in assay [1], in assay [3], in [4], in [5], in assay [6] and in assay [7] was > 100 µM (inactive) each time. In addition, the GI50 in assay [8], in assay [9], in assay [11], in assay [18], in assay [12] and in assay [13] was > 100 µM (inactive) throughout. Further, the GI50 in [14] and in assay [16] was > 100 µM (inactive) throughout.
As to `CC1Cn2c(nc3ccccc32)NC1=O` (stereo not drawn), the GI50 in assay [1], in assay [2], in assay [3], in [4], in [5] and in [17] was > 100 µM (inactive) each time. In addition, the GI50 in assay [6], in [7], in assay [8], in assay [9], in assay [10] and in [11] was > 100 µM (inactive) in each case. Also, the GI50 in [18], in assay [13], in [14], in [15] and in assay [16] was > 100 µM (inactive) each time.
For the compound `CSCCCC(NC(=O)CNC(=O)C1CCCN1C(=O)C(Cc1ccc(O)cc1)NC(=O)C(Cc1ccccc1)NC(=O)C(CCCNC(=N)N)NC(=O)C(CC(=O)O)NC(=O)C1CCCN1C(=O)C(CC(=O)O)NC(=O)C1CCCN1C(=O)C1CCCN1C(=O)CN)C(N)=O` (stereo not drawn) (H-GPPDPDRFYPG[X41]-NH2; configuration not given here), the GI50 in [1], in assay [2], in assay [3], in assay [4], in assay [5] and in assay [17] was > 50 µM (inactive) each time. In addition, the GI50 in assay [6], in [7], in assay [9], in assay [10], in [11] and in assay [13] was > 50 µM (inactive) throughout. Besides, the GI50 in assay [14], in [15] and in assay [16] was > 50 µM (inactive) in each case.

These data come from ChEMBL document CHEMBL1201862, “PubChem BioAssay data set” (2004).
